The source of these data is ChEMBL document CHEMBL4765246, “Design, synthesis and biological evaluation of quinoxaline compounds as anti-HIV agents targeting reverse transcriptase enzyme” (Eur J Med Chem, 2020).

The test system of series [1] is Human immunodeficiency virus type 1 BH10. The experiment in a line: Inhibition of wild type recombinant HIV-1 subtype B BH10 p66/p51 reverse transcriptase heterodimer expressed in Escherichia coli BL21 (DE3) assessed as inhibition of dTTP incorporation on poly(rA)-oligo(dT) template primer duplex at 10 uM preincubated with enzyme for 2 mins followed by incubation with poly(A)-oligo(dT) templates for 2 hrs by flourescence assay method. The conditions noted are these: time 122.0 min.

Series [2] shares this test system. The series is described as follows: Inhibition of wild type recombinant HIV-1 subtype B BH10 p66/p51 reverse transcriptase heterodimer expressed in Escherichia coli BL21 (DE3) assessed as inhibition of dTTP incorporation on poly(rA)-oligo(dT) template primer duplex at 100 uM preincubated with enzyme for 2 mins followed by incubation with poly(A)-oligo(dT) templates for 2 hrs by flourescence assay method. The conditions noted are these: time 122.0 min.

Series [3] shares this test system. The series is described as follows: Inhibition of recombinant HIV-1 subtype B BH10 p66/p51 reverse transcriptase heterodimer K103N mutant assessed as inhibition of dTTP incorporation on poly(rA)-oligo(dT) template primer duplex at 50 uM preincubated with enzyme for 2 mins followed by incubation with poly(A)-oligo(dT) templates for 2 hrs by flourescence assay method. The conditions noted are these: time 122.0 min.

Series [4] can be described thus: Inhibition of wild type recombinant HIV-1 subtype B BH10 p66/p51 reverse transcriptase heterodimer expressed in Escherichia coli BL21 (DE3) assessed as inhibition of dTTP incorporation on poly(rA)-oligo(dT) template primer duplex preincubated with enzyme for 2 mins followed by incubation with poly(A)-oligo(dT) templates for 2 hrs by flourescence assay method. On the set-up: species or system Human immunodeficiency virus type 1 BH10.

Series [5] concerns Human immunodeficiency virus type 1 BH10. The series is described as follows: Selectivity for inhibition of wild type recombinant HIV-1 subtype B BH10 p66/p51 reverse transcriptase heterodimer expressed in Escherichia coli BL21 (DE3) at 50 uM over inhibition of recombinant HIV-1 subtype B BH10 p66/p51 reverse transcriptase heterodimer K103N mutant at 50 uM by fluorescence based assay.

Series [6] is described as follows: Anti-HIV-1 activity against HTLV-3B infected in human MT2 cells assessed as reduction in syncytium formation by measuring reduction in p24 antigen production measured after 4 days by ELISA method. Type of series: functional, cell-based. The following applies: Human immunodeficiency virus 1, HTLV-3B, MT2, 96 h.
Series [7] in a line: Cytotoxicity against human MT2 cells assessed as reduction in cell viability measured after 4 days by Trypan blue assay. Type of series: cell-based. The following applies: time 4 day.
The nature of series [8]: Selectivity index, ratio of CC50 for human MT2 cells to EC50 for anti-HIV-1 activity against HTLV-3B infected in human MT2 cells. Type of series: toxicity, cell-based. The conditions noted are these: read-out: Ratio CC50/EC50.

A value given as a limit tells only on which side of the number the result lay.

Consider `CCOC(=O)CCc1nc2ccccc2nc1O`, for which the inhibition turned out to be 15% in series [1] and 12% in series [2].

Consider `Oc1nc2ccccc2nc1Cc1ccccc1`, for which the inhibition in series [1] came to 10%; in series [2], 26%.

Consider `CCC(=O)N1CC(=O)Nc2ccccc21`, for which the inhibition was found to be 47% in series [3], 91% in series [1] and 99% in series [2]. Moreover, the IC50 in series [4] came out at 0.63 µM. Besides, the Selectivity ratio in series [5] turned out to be 2. Further, the concentration giving a half-maximal response (EC50) in series [6] turned out to be 0.0031 µM. The CC50 at 96 h in series [7] was 98.6 µM. Besides, the selectivity ratio in series [8] amounted to 31800.

Turning to `CC(C)c1nc2ccccc2[nH]c1=O`, the inhibition turned out to be 12% in series [1] and 17% in series [2].

On to `O=C1CN(S(=O)(=O)c2ccccc2)c2ccccc2N1`, for which the results for the inhibition in series [1] and in series [2] were 14% and 12%, respectively.

Consider `O=C1CN(C(=O)CCCl)c2ccccc2N1`, for which the inhibition in series [1] is 12%; in series [2], 26%.

As for `CC(C)[C@H]1C(=O)Nc2ccccc2N1C(=O)CCCl`, the inhibition in series [1] and in series [2] was 7% throughout.

As to `CC(C)Cc1nc2ccccc2[nH]c1=O`, the inhibition in series [3] turned out to be 5%; in series [1], 15%; in series [2] it was 73%. Besides, the IC50 in series [4] was determined as 23 µM. Moreover, the Selectivity ratio in series [5] was 16. The half-maximal effective concentration (EC50) in series [6] was more than 10 µM. Besides, in series [7], the CC50 at 96 h came out at 134 µM.

Take `CC(C)OC(=O)N1CC(=O)Nc2ccccc21`: the figures for the inhibition in series [1] and in series [2] were 20% and 19%, respectively.

`CC(C)OC(=O)CCc1nc2ccccc2nc1O`: the inhibition in series [1] was determined as 21%; in series [2] it was 25%.

Consider `C[C@H]1C(=O)Nc2ccccc2N1C(=O)CCCl`, for which the inhibition in series [1] was 15%; in series [2], 28%.

Take `O=C1CN(C(=O)c2ccccc2)c2ccccc2N1`: the results for the inhibition in series [1] and in series [2] were 14% and 33%, respectively.

In the case of `CC(C)[C@H]1C(=O)Nc2ccccc2N1C(=O)CCl`, the inhibition in series [1] worked out at 5%; in series [2] it was 12%.

As to `O=C1CN(C(=O)CCl)c2ccccc2N1`, the inhibition in series [1] worked out at 24%; in series [2] it was 32%.

For `CCC(=O)N1c2ccccc2NC(=O)[C@@H]1C`, the inhibition in series [1] came out at 7%; in series [2], 23%.

As to `CC(C)COC(=O)N1CC(=O)Nc2ccccc21`, the results for the inhibition in series [1] and in series [2] were 20% and 46%, respectively. In addition, the EC50 in series [6] is more than 10 µM. Also, in series [7], the CC50 at 96 h stood at 262 µM.

As for `CC(C)COC(=O)N1c2ccccc2NC(=O)[C@@H]1CC(C)C`, the figures for the inhibition in series [3], in series [1] and in series [2] were 20%, 22% and 51%, respectively. Moreover, in series [4], the IC50 came out at 67 µM. In addition, in series [5], the Selectivity ratio came out at 3.

As for `CC(C)C[C@H]1C(=O)Nc2ccccc2N1C(=O)CCCl`, the inhibition in series [1] was determined as 10%; in series [2], 20%.

With `CC(C)COC(=O)N1c2ccccc2NC(=O)[C@@H]1C`, the inhibition in series [3] is 13%; in series [1] it was 37%; in series [2] it was 64%. Moreover, in series [4], the IC50 worked out at 64 µM. Also, the Selectivity ratio in series [5] is 5. The EC50 in series [6] stood at 1.58 µM. Further, the CC50 at 96 h in series [7] turned out to be 117 µM. Also, in series [8], the selectivity ratio came out at 74.

Take `O=C(O)CCc1nc2ccccc2[nH]c1=O`: the inhibition in series [1] came out at 20%; in series [2] it was 15%.

On to `Oc1nc2ccccc2nc1O`, for which the figures for the inhibition in series [1] and in series [2] were 8% and 1%, respectively.

In the case of `COC(=O)CCc1nc2ccccc2nc1O`, the inhibition in series [1] is 8%; in series [2], 23%.

As for `C[C@H]1CNc2ccccc2N1C(=O)CCl`, the inhibition in series [1] and in series [2] was 8% each time.

In the case of `Cc1ccnc2c1NC(=O)c1cccnc1N2C1CC1` [NEVIRAPINE], the inhibition in series [3] was found to be 50%; in series [1], 91%; in series [2], 98%. For the same compound, the IC50 in series [4] amounted to 0.13 µM. Besides, the Selectivity ratio in series [5] turned out to be 2. Besides, the EC50 in series [6] amounted to 0.0067 µM. In addition, in series [7], the 50% cytotoxic concentration (CC50) at 96 h came out at 96.2 µM. The selectivity ratio in series [8] stood at 14400.

As for `CC(=O)N1CC(=O)Nc2ccccc21`, the inhibition in series [1] stood at 7%; in series [2], 56%.

As for `Cc1nc2ccccc2nc1O`, the inhibition is 3% in series [1] and 1% in series [2].
